The text below walks through data of US7414110B2, “Human calcium channel compositions and methods” (Merck & Co., Inc., priority 1990, dated 2008).

The target in one experiment is T1, α1B-2α2b (Homo sapiens, UniProt Q00975, L2215R/Y99N).
T1 construct: Full-length DNA clones and corresponding RNA transcripts, encoding α1, including splice variants of α1A, α1D, α1B; expressed in transfected cells; host or cells: HEK293 cells, transient
Type of experiment: binding.

The target in a further experiment is T2, α1B-1β1-3 (Homo sapiens, UniProt Q00975, Y99N).
T2 construct: contains, in pcDNA1, a full-length coding region encoding α1B-1; expressed in transfected cells; host or cells: HEK293 cells, transient
The experiment is classed as binding.

Another experiment addresses T3, α1B-1β1-2 (Homo sapiens, UniProt Q00975, Y99N).
T3 construct: contains, in pcDNA1, a full-length coding region encoding α1B-1; expressed in transfected cells; host or cells: HEK293 cells, transient
The experiment is classed as binding.

The target of a further experiment is T4, α1B-2 (Homo sapiens, UniProt Q00975, L2215R/Y99N).
T4 construct: Full-length DNA clones and corresponding RNA transcripts, encoding α1, including splice variants of α1A, α1D, α1B; expressed in transfected cells; host or cells: HEK293 cells, transient
The experiment is classed as binding.

A further experiment deals with T5, α1B-2α2bβ1-2 (Homo sapiens, UniProt Q00975, L2215R/Y99N).
T5 construct: Full-length DNA clones and corresponding RNA transcripts, encoding α1, including splice variants of α1A, α1D, α1B; expressed in transfected cells; host or cells: HEK293 cells, transient
The experiment is classed as binding.

A further experiment concerns the target T6, α1B-2β1-2 (Homo sapiens, UniProt Q00975, L2215R/Y99N).
T6 construct: Full-length DNA clones and corresponding RNA transcripts, encoding α1, including splice variants of α1A, α1D, α1B; expressed in transfected cells; host or cells: HEK293 cells, transient
Type of experiment: binding.

Another experiment concerns the target T7, α1B-2β1-3 (Homo sapiens, UniProt Q00975, L2215R/Y99N).
T7 construct: Full-length DNA clones and corresponding RNA transcripts, encoding α1, including splice variants of α1A, α1D, α1B; expressed in transfected cells; host or cells: HEK293 cells, transient
The experiment is classed as binding.

The target in a further experiment is T8, α1B-1 (Homo sapiens, UniProt Q00975, Y99N).
T8 construct: contains, in pcDNA1, a full-length coding region encoding α1B-1; expressed in transfected cells; host or cells: HEK293 cells, transient
T8 sequence (Q00975 whole entry Y99N): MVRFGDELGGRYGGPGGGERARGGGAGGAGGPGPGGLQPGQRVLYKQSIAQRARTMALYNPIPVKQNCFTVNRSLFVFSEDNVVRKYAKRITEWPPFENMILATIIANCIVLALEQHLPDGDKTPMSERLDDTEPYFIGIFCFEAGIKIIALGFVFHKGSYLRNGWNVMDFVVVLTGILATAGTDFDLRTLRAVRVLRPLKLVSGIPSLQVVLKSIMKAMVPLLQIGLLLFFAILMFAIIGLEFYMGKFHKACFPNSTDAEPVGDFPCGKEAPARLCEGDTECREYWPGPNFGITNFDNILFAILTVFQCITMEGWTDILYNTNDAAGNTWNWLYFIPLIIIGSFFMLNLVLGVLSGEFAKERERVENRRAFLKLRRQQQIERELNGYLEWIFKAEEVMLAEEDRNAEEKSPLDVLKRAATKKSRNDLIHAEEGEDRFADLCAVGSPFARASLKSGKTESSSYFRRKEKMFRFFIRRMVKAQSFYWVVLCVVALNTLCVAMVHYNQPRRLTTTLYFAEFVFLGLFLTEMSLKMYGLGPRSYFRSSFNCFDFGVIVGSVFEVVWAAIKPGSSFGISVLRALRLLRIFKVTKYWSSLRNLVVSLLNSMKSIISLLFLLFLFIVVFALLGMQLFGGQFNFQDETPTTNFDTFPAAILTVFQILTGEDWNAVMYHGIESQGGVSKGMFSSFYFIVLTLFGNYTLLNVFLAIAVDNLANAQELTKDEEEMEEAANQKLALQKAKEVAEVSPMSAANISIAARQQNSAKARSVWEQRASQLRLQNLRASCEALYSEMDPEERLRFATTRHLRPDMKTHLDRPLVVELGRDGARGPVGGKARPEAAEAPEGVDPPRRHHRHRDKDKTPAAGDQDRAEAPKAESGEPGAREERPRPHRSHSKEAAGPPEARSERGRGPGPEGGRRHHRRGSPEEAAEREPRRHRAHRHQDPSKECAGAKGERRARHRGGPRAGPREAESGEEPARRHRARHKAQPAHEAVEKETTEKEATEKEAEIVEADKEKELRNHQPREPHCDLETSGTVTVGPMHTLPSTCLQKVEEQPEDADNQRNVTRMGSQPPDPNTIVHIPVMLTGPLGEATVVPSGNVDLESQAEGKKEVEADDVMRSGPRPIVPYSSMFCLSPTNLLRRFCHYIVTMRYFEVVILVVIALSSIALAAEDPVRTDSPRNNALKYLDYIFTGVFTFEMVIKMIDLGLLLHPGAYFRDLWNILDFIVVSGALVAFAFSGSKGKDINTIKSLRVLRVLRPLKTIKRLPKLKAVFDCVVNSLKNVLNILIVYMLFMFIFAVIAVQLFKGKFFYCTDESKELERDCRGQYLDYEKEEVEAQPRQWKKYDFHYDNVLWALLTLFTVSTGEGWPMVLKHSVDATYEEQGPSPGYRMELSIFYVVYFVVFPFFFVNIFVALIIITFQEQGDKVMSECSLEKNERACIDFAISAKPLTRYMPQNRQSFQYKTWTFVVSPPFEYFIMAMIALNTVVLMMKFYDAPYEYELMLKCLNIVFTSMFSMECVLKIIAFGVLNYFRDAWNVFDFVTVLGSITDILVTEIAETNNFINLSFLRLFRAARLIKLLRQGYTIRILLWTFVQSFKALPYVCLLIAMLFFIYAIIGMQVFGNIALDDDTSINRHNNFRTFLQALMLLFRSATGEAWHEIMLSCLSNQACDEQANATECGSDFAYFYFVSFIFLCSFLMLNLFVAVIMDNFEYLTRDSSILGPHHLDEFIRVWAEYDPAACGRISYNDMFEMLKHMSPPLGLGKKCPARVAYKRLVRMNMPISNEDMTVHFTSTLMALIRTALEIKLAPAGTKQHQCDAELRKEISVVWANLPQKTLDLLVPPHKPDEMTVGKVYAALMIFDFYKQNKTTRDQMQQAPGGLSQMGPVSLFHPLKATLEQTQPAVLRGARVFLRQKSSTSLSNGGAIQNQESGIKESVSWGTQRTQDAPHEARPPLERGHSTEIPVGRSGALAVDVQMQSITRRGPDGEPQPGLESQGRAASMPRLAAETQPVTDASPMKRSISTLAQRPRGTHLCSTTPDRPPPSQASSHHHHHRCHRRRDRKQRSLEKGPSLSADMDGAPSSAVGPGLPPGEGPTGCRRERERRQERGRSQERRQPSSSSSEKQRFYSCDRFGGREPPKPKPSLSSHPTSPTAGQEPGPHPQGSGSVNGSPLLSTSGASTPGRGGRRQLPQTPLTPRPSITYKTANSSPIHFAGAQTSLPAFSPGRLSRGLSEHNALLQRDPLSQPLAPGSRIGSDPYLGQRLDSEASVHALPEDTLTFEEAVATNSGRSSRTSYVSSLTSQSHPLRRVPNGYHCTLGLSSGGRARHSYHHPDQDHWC
Type of experiment: binding.

The target of a further experiment is T9, α1B-1α2b (Homo sapiens, UniProt Q00975, Y99N).
T9 construct: contains, in pcDNA1, a full-length coding region encoding α1B-1; expressed in transfected cells; host or cells: HEK293 cells, transient
T9 sequence (Q00975 whole entry Y99N): as above
T9 sequence (as listed by the source partner): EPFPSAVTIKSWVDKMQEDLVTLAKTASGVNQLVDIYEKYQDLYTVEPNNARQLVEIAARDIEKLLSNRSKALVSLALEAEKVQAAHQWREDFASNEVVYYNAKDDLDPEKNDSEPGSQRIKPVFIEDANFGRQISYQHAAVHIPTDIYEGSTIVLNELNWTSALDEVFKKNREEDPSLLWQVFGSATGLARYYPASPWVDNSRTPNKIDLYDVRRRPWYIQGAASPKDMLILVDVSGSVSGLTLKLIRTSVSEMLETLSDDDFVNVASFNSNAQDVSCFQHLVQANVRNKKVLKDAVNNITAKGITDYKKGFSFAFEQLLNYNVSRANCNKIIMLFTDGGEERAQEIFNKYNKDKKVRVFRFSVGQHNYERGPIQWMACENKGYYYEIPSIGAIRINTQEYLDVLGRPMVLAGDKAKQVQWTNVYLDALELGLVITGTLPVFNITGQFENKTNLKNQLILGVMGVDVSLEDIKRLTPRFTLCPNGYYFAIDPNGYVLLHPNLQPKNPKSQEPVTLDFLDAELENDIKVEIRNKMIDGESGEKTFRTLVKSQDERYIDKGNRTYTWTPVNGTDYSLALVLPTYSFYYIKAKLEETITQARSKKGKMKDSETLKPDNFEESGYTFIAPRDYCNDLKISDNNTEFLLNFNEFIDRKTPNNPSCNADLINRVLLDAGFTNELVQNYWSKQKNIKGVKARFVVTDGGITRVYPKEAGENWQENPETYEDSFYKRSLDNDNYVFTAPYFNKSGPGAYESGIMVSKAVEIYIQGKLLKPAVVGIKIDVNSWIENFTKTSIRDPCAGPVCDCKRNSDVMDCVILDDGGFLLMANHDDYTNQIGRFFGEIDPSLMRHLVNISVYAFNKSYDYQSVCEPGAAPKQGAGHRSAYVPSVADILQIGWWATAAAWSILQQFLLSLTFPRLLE
T9 sequence (as listed by the source partner): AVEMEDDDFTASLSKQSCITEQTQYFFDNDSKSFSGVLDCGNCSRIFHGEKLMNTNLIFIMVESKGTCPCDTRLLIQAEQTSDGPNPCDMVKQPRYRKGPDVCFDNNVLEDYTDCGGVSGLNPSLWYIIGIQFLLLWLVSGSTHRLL
Type of experiment: binding.

In experiment [1] the test system is subunit combinations lacking either the α1B-1 or the α1B-2 subunit.
For experiment [2], the target named is T10, α1B-1α2bβ1-2 (Homo sapiens, UniProt Q00975, Y99N).
T10 construct: contains, in pcDNA1, a full-length coding region encoding α1B-1; expressed in transfected cells; host or cells: HEK293 cells, transient
Type of experiment: binding.
Target sequence in this assay (Q00975 whole entry Y99N): as the sequence (Q00975 whole entry Y99N) above

A further experiment concerns the target T11, α1B-1α2bβ1-3 (Homo sapiens, UniProt Q00975, Y99N).
T11 construct: contains, in pcDNA1, a full-length coding region encoding α1B-1; expressed in transfected cells; host or cells: HEK293 cells, transient
The experiment is classed as binding.

Another experiment addresses T12, α1B-2α2bβ1-3 (Homo sapiens, UniProt Q00975, L2215R/Y99N).
T12 construct: Full-length DNA clones and corresponding RNA transcripts, encoding α1, including splice variants of α1A, α1D, α1B; expressed in transfected cells; host or cells: HEK293 cells, transient
The experiment is classed as binding.

Experiment [3] has as its target human neuronal calcium channel α1D and β1 subunits (Homo sapiens, UniProt Q01668, S1346F/Y1433H). In words: two-electrode voltage clamp, oöcytes injected with α1D and β1 transcripts. Conditions: two of four oöcytes; compared with α1D, α2, β1 oöcytes.
The target in experiment [4] is T10, α1B-1α2bβ1-2. The experiment is classed as cell-based.
Target sequence in this assay (Q00975 whole entry Y99N): as above
Target sequence in this assay (as listed by the source partner): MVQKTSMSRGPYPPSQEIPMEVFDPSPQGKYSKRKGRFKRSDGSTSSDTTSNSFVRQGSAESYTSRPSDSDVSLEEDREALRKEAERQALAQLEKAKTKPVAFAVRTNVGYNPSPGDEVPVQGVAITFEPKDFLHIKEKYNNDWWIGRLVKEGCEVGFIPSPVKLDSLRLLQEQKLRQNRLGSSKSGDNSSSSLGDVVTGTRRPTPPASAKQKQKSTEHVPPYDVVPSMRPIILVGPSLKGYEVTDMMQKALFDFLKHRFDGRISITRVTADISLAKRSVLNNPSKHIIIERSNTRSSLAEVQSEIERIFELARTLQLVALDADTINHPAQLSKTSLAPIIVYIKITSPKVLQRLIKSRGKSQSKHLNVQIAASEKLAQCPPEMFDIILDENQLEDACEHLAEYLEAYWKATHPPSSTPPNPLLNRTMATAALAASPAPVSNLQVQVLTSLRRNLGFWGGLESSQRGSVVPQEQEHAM
The test system of experiment [5] is untransfected HEK 293 cells. In words: whole-cell patch clamp, untransfected HEK 293 cells. Type of experiment: cell-based, human. Particulars: with or without cAMP or forskolin.
Experiment [6] relates to human neuronal calcium channel α2 and β1 subunits. Kind of experiment: two-electrode voltage clamp, oöcytes injected with α2 and β1 transcripts. Conditions: n=11.
For experiment [7], the target named is human neuronal calcium channel α1D and α2 subunits (Homo sapiens, UniProt Q01668, S1346F/Y1433H). In words: two-electrode voltage clamp, oöcytes injected with α1D and α2 transcripts. Particulars: 15-30 nA currents; holding potential −90 mV.
Experiment [8] concerns the target T13, α1B-1, α2b and β1-2 subunits (Homo sapiens, UniProt Q00975, Y99N).
T13 construct: contains, in pcDNA1, a full-length coding region encoding α1B-1; expressed in transfected cells; host or cells: HEK293 cells, transient
The experiment is classed as binding.

Experiment [9] has as its system untransfected HEK293 cells.
In experiment [10] the test system is cells transfected with only β-galactosidase-encoding DNA or α2bβ-encoding DNA.
Experiment [11] concerns calcium channels containing α1E subunits. Type of experiment: cell-based, human.

T13 sequence (Q00975 whole entry Y99N): as the sequence (Q00975 whole entry Y99N) above

On to `C[C@@H](O)[C@@H]1NC(=O)[C@H](Cc2ccc(O)cc2)NC(=O)[C@@H]2C[C@@H](O)CN2C(=O)[C@H](CC(N)=O)NC(=O)[C@@H]2CSSC[C@@H]3NC(=O)[C@H](CO)NC(=O)[C@H](CO)NC(=O)CNC(=O)[C@@H]4C[C@@H](O)CN4C(=O)[C@H](CO)NC(=O)[C@H](CCCCN)NC(=O)[C@@H](N)CSSC[C@H](NC(=O)[C@H](CSSC[C@@H](C(=O)N[C@@H](Cc4ccc(O)cc4)C(N)=O)NC(=O)[C@H](CCCNC(=N)N)NC(=O)[C@H](CCCCN)NC1=O)NC(=O)[C@H](CC(N)=O)NC(=O)[C@H](Cc1ccc(O)cc1)NC(=O)[C@H](CO)NC(=O)[C@H]([C@@H](C)O)NC(=O)[C@@H]1C[C@@H](O)CN1C(=O)[C@H](CO)NC3=O)C(=O)N[C@@H](CCCNC(=N)N)C(=O)N[C@@H](CO)C(=O)N2` [125I-ω-CgTx GVIA], for which the “Kd (pM)” value on α1B-2α2b and at α1B-2 was “too low for reliable Scatchard analysis” each time. Also, the “Bmax (sites/cell)” value is 8,729 ± 2,980 sites/cell on α1B-1β1-3; 5,756 ± 2,163 sites/cell on α1B-1β1-2; 19,371 ± 3,798 sites/cell on α1B-2α2bβ1-2; 2,126 ± 412 sites/cell on α1B-2β1-2; 2,944 ± 1,168 sites/cell on α1B-2β1-3; 757 ± 128 sites/cell at α1B-1. Besides, the “Bmax (sites/cell)” value at α1B-1α2b was 2,256 ± 356 sites/cell; at α1B-1α2bβ1-2 [2], 45,324 ± 15,606 sites/cell; at α1B-1α2bβ1-3, 91,004 ± 37,654 sites/cell; at α1B-2α2bβ1-3, 37,652 ± 8,129 sites/cell. The “number of binding sites” value on α1B-1 is reported as “approximately 750 binding sites/cell”. In addition, the “detectable 125I-ω-CgTx GVIA binding” value in [1] is given as at most 600 sites/cell.
Regarding `COC(=O)C1=C(C)NC(C)=C([N+](=O)[O-])C1c1ccccc1C(F)(F)F` (stereo not drawn) [Bay K 8644], in experiment [3], the “sensitivity of Ba2+ currents to Bay K 8644” value is given as “similar”. Moreover, the “effect on IBa” value at α1B-1α2bβ1-2 [4] (n=4) is recorded as “no discernable effect”. The “effects of Bay K 8644 on currents” value in [5] is reported as “No such effects”. The “sensitivity of inward barium currents to Bay K 8644” value in [6] is “insensitive”. In addition, the “response of barium currents to Bay K 8644” value in [7] is on record as “little or no response”.
As for `[Cd]` [cadmium], the “blockage of IBa” value on α1B-1α2bβ1-2 [4] (50 μM) was “rapid, complete, and reversible”.
`C[C@@H](O)[C@@H]1NC(=O)[C@H](Cc2ccc(O)cc2)NC(=O)[C@@H]2C[C@@H](O)CN2C(=O)[C@H](CC(N)=O)NC(=O)[C@@H]2CSSC[C@@H]3NC(=O)[C@H](CO)NC(=O)[C@H](CO)NC(=O)CNC(=O)[C@@H]4C[C@@H](O)CN4C(=O)[C@H](CO)NC(=O)[C@H](CCCCN)NC(=O)[C@@H](N)CSSC[C@H](NC(=O)[C@H](CSSC[C@@H](C(=O)N[C@@H](Cc4ccc(O)cc4)C(N)=O)NC(=O)[C@H](CCCNC(=N)N)NC(=O)[C@H](CCCCN)NC1=O)NC(=O)[C@H](CC(N)=O)NC(=O)[C@H](Cc1ccc(O)cc1)NC(=O)[C@H](CO)NC(=O)[C@H]([C@@H](C)O)NC(=O)[C@@H]1C[C@@H](O)CN1C(=O)[C@H](CO)NC3=O)C(=O)N[C@@H](CCCNC(=N)N)C(=O)N[C@@H](CO)C(=O)N2` [ωCgTX]: the “binding capacity (Bmax)” value in [8] is recorded as 28,710±11,950 sites per cell. In addition, in experiment [9], the “detectable ω-CgTx GVIA binding sites” value is listed as “do not express detectable”. The specific binding result in [10] is given as “no specific binding”. On α1B-1α2bβ1-2 [4], the block of activity entry is on record as “blocked the activity completely”, the block of channels entry is listed as “blocked irreversibly” and the “time to complete block” value is at most 2 min.
With “ω-Aga-IVA: funnel web spider toxin that blocks certain high voltage activated channels (KKKCIAKDYGRCKWGGTPCCRGRGCICSIMGTNCECKPRLIMEGLGLA)”, in [11], the “sensitivity of channels containing α1E subunits” value is “sensitive”.
